In patent US9241920B2, “Inhibition of c-Myc ubiquitination to prevent cancer initiation and progression” (NEW YORK UNIVERSITY, priority 2011, dated 2016):

Columns and labels:
[1] = tested on: human CD34+ cells (CML patients) depleted of Fbw7; assay: Apoptosis (annexin V staining) of Fbw7-depleted human CML CD34+ cells; format: cell-based; conditions: human CD34+ cells after depletion of Fbw7; decrease of c-Myc activity
Procedure: Viable bone marrow mononuclear cells from two treatment-naïve patients in the chronic phase of CML were obtained from AllCells. To examine the role of FBW7 in the maintenance of LICs for human CML, bone marrow mononuclear cells were transfected with 300 nM FBW7 siRNAs (Stealth Select RNAi siRNA, Invitrogen) by electroporation with the use of an Amaxa Nucleofector II device (Lonza) according to the manufacture's instructions. The transfected cells were then stained with antibodies to human CD34 (8G12), CD3 (SK7), CD16 (3G8), CD19 (SJ25C1), CD20 (L27), CD14 (MφP9), and CD56 (NCAM16.2) (BD Biosciences). CD3, CD16, CD19, CD20, CD14, and CD56 were used as lineage markers. CD34^+Lin^− cells were purified by FACS and cocultured with OP-9 cells for 7 days. For assays of apoptosis, cells were collected after 7 days of culture, stained for cell surface markers, further incubated for 15 min with annexin V (BD Biosciences) and then analyzed by flow cytometry.

[2] = tested on: human CD34+Lin- cells (CML patients) depleted of Fbw7; assay: Colony forming unit assay of Fbw7-depleted human CML CD34+ cells; format: cell-based; conditions: human CD34+ cells after depletion of Fbw7; decrease of c-Myc activity
Procedure: For the in vitro CFU experiments, mice received 5 intra-peritoneal (IP) injections of poly(I:C) at a dose of 20 ug/g, and LSK cells were purified 10 days post poly(I:C). LSK cells were purified and infected with Bcr-Abl-NGFR or Bcr-Abl-GFP retrovirus as described above. Bcr-Abl^+ lineage negative cells were sorted 72 hours after the first infection and 1000 cells were seeded into cytokine-supplemented methylcellulose medium (MethoCult 3434, Stem Cell Technologies). Colonies were counted 7 days after they were seeded and 4000 cells were re-plated and colonies were counted after another 7 days (14 days total). For human CFU assay, cells were collected after 7 days of culture, and 1×10^3 CD34^+Lin^− cells were transferred to Methocult medium (MethoCult GF H4435, StemCell Technologies). The number of colonies was counted 1 week after plating.
Viable bone marrow mononuclear cells from two treatment-naïve patients in the chronic phase of CML were obtained from AllCells. […] For assays of apoptosis, cells were collected after 7 days of culture, stained for cell surface markers, further incubated for 15 min with annexin V (BD Biosciences) and then analyzed by flow cytometry.

`CCc1ccc(/C=C2/SC(=S)NC2=O)cc1` [10058-F4] was tested, and the “apoptosis of Fbw7-depleted cells” value [1] was “rescued cells from apoptosis” and the “colony forming ability of Fbw7-depleted cells” value [2] was “rescued”.
